Where two headings read alike, the source gives them in different places. One block for each compound: values may come before it.
Target: T1, N-type Ca^2+ Channel (Homo sapiens, UniProt Q00975)
T1 construct: host or cells: IMR-32 cells differentiated with dibutyryl cAMP and bromodeoxyuridine
Assay: Measurement of N-type Ca2+ channel blocking potencies in IMR-32 cells using the fluorescent Ca2+ indicator Indo-1
Format: cell-based
Procedure: Measurement of N-type Ca^2+ Channel Blocking Potencies of Compounds in IMR-32 Cells Using the Fluorescent Ca^2 + Indicator Indo-1
IMR-32 cells are a human tumoral cell line of neural origin. […] Calcium flux into these cells may be induced by stimulation with elevated potassium concentrations. The L-channel component of calcium flux may be blocked by adding 5 μM nitrendipine. The remaining component of calcium entry into the IMR-32 cells is due to calcium flux through N-type calcium channels. Intracellular calcium concentrations are measured using the fluorescent calcium indicator Indo-1. The effect of drug concentration on calcium uptake is studied.
The IMR-32 cell line was obtained from the American Type Culture Collection (Rockville, Md.). Cells were grown in Eagle's Minimum Essential Medium with Earle's salts supplemented with 10% fetal bovine serum, 2 mM L-Gln and antibiotic/antimycotic mixture (Gibco). At approximately 80% confluency, differentiation was induced by the addition of 1 mM dibutyryl cAMP and 2.5 μM bromodeoxyuridine to the medium. After 7 to 13 days of differentiation, cells were detached using 0.5 mM EDTA and loaded with 5 μM Indo-1 acetoxymethyl ester (Molecular Probes, Eugene, Oreg.) at 30° C. for 45 minutes. Loaded cells were washed twice, resuspended (~10^7 cells/mL) in assay buffer (10 mM HEPES/Tris pH 7.4 in Hank's Balanced Salt Solution without bicarbonate or phenol red containing 0.5% bovine serum albumin) and kept on ice until use. Fluorescence measurements were carried out in a Photon Technology International (PTI, South Brunswick, N.J.) Model RF-F3004 spectrofluorometer with dual emission monochromators using excitation at 350 nm and emission at 400 and 490 nm. The instrument was equipped with a thermostated cuvette holder with stirring capabilities as well as with a computer-controlled pump which allowed for reagent addition during measurement. Instrument control and data collection was done by PTI's OSCAR software running on an IBM compatible computer. Different concentrations of the test compounds (60 μL in dimethyl sulfoxide) were added to 5.94 mL of assay buffer containing approximately 3×10^6 loaded cells, and 5 μM nitrendipine (in 30 μL EtOH) to block L-type Ca^2+ channels. Samples were incubated for 10 minutes at 30° C. and then aliquoted into three 10×10 mm disposable acrylic cuvettes. Emission signals at 400 and 490 nm were acquired from each cuvette at 30° C. for 50 seconds. At 20 seconds after the start of reading, cells were depolarized by the addition of 160 μL of stimulation solution (1 M KCl, 68 mM CaCl2) to the cuvette via the computer-controlled pump. Ratio of dual emission signals (400 nm/ 490 nm), which is proportional to intracellular Ca^2+ concentration, was plotted against time, and the difference between maximal response after stimulation and basal value (before stimulation) was determined. Values obtained in this way were plotted as a function of drug concentration. IC50 values of test compounds were calculated by fitting a four-parameter logistic function to the data using the least squares method.

[1] = IMR-32 cells, 5 μM nitrendipine
[2] = IMR-32 cells, K+ depolarization, 5 μM nitrendipine to block L-type channels, read-out: IMR 32 IC50
[3] = IMR-32 cells, 5 μM nitrendipine, Examples 116-140, read-out: IMR 32% of Blockade @

T1 sequence (Q00975 whole entry): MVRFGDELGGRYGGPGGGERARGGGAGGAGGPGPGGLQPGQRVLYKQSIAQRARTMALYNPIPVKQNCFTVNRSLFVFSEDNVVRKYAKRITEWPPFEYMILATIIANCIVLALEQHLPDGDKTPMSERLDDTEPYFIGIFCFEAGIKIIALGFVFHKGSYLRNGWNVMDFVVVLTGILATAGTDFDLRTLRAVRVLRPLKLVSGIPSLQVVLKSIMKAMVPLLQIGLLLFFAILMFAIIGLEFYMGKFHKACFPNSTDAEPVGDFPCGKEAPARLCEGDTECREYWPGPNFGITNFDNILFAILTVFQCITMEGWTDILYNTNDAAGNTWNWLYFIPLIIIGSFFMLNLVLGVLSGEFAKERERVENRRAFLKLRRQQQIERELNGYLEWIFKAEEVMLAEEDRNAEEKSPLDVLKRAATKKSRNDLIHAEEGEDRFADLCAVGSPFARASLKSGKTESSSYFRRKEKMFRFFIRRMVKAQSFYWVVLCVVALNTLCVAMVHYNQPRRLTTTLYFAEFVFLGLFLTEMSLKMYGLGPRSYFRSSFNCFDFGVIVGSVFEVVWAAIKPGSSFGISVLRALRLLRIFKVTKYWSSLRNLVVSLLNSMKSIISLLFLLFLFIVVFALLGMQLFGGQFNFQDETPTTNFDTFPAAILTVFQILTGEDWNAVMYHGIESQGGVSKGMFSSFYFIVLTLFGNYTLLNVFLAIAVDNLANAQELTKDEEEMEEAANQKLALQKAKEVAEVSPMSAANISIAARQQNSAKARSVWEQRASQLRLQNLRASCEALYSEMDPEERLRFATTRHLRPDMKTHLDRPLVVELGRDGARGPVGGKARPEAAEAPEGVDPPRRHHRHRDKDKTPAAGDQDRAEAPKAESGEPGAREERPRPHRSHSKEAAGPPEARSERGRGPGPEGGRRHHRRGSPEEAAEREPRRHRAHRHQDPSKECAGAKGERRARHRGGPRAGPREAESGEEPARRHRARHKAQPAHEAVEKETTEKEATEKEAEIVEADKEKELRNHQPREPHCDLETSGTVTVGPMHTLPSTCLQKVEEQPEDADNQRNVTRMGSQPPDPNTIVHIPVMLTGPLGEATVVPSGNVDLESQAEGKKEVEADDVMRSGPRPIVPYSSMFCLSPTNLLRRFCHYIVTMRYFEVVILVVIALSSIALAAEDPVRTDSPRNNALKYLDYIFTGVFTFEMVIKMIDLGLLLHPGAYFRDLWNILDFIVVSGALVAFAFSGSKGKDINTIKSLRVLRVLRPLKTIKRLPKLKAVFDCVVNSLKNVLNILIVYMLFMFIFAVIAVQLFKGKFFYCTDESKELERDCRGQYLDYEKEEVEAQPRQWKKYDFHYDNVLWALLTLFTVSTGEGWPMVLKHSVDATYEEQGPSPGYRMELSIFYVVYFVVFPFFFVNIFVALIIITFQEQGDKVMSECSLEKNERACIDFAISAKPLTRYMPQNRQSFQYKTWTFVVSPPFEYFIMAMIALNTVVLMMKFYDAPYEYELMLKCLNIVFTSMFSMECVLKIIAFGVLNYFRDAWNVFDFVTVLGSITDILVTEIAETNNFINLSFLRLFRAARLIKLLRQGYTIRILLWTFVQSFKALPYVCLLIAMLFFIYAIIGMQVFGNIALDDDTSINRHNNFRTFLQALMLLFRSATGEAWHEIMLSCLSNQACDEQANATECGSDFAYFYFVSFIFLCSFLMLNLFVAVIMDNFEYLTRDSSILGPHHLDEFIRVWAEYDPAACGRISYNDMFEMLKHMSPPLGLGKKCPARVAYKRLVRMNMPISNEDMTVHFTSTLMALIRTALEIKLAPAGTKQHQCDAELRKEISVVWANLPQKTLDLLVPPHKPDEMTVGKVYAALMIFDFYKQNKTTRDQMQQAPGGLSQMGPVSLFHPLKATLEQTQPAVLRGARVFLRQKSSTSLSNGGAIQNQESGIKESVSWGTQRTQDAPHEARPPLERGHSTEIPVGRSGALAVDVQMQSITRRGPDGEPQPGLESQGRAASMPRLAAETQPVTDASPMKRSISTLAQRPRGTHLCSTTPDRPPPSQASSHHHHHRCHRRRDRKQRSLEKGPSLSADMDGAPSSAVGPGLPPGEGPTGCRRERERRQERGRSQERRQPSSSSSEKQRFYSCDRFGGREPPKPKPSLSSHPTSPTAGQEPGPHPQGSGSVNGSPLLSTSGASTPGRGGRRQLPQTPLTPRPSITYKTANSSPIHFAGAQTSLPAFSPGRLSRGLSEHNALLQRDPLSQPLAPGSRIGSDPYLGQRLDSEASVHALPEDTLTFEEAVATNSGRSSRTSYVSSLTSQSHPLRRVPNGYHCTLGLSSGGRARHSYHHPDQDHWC
T1 sequence (P54284 whole entry partner): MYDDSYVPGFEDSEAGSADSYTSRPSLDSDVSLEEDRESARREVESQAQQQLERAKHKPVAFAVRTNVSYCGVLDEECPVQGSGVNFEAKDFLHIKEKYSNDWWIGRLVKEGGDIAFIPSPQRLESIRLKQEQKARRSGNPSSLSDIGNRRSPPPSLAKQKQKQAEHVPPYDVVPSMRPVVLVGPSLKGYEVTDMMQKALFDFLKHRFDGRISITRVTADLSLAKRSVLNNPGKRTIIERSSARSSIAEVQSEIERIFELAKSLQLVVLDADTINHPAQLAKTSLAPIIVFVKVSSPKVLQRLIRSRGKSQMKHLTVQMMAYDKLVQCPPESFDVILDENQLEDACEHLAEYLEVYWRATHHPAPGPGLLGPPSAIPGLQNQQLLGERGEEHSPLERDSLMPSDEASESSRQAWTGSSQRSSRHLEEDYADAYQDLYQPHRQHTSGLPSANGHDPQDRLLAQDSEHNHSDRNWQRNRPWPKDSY
T1 sequence (P54289 25-946 partner limits assumed): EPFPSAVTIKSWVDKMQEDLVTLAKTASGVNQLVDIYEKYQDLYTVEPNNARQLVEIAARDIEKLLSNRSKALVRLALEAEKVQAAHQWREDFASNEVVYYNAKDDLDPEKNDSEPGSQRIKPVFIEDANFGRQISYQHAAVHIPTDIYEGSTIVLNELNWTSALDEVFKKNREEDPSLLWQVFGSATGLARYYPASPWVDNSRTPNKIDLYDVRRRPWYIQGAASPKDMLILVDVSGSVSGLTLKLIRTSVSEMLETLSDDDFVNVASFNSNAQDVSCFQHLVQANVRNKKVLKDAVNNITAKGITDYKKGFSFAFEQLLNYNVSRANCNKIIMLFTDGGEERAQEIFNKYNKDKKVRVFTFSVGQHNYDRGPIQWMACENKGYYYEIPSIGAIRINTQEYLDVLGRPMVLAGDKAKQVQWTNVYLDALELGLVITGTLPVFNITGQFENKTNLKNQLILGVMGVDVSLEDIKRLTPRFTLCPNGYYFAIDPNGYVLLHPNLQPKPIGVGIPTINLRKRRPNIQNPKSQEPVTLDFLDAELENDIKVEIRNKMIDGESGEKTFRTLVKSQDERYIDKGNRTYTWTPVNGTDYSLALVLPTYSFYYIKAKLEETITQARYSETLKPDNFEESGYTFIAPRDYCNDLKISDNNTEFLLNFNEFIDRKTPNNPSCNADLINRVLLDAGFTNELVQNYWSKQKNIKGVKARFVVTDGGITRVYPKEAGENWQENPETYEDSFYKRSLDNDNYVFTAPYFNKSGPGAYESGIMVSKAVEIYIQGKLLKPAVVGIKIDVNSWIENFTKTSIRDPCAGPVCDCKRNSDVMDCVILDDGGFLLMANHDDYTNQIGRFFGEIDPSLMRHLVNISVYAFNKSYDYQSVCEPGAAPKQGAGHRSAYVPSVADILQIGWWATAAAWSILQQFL
T1 sequence (P54289 947-1103 partner limits assumed): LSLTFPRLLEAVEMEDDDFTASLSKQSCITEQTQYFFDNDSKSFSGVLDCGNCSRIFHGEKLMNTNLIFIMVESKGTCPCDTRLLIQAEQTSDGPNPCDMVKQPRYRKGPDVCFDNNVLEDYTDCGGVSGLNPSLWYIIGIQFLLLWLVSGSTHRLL

- IC50 [2]: 1 µM
Compound: CC(C)CCN(C)[C@@H](CC(C)C)C(=O)N[C@@H](Cc1ccc(OCc2ccccc2)cc1)C(=O)NCCc1ccccn1 (relative stereo) [Example 58, [S-(R*,R*)]-4-Methyl-2-[methyl-(3-methyl-butyl)-amino]-pentanoic acid [2-(4-benzyloxy-phenyl)-1-(2-pyridin-2-yl-ethylcarbamoyl)-ethyl]-amide]

- IC50 [2]: 0.4 µM
Compound: CC(C)CCN(C)[C@@H](CC(C)C)C(=O)N[C@@H](Cc1ccc(OCc2ccccc2)cc1)C(=O)NC1CCN(Cc2ccccc2)C1 (relative stereo) [Example 67, [S-(R*,R*)]-4-Methyl-2-[methyl-(3-methyl-butyl)-amino]-pentanoic acid [2-(4-benzyloxy-phenyl)-1-(1-benzyl-pyrrolidin-3-ylcarbamoyl)-ethyl]-amide]

- IC50 [3]: 10 µM
Compound: [S-(R*,R*)]-4-Methyl-2-(tetrahydropyran-4-yl-amino)-pentanoic acid [2-(4-benzyloxy-phenyl)-1-(4-hydroxy-piperinylcarbamoyl]-amide [Example 131]

- IC50 [3]: 18 µM
Compound: CC(C)CC(C(=O)NC(Cc1ccc(OCc2ccccc2)cc1)C(=O)NCCN1CCOCC1)N1CCOCC1 (stereo not drawn) [Example 119, [S-(R*,R*)]-4-Methyl-2-morpholin-4-yl-pentanoic acid [2-(4-benzyloxy-phenyl)-1-(2-morpholin-4-yl-ethylcarbamoyl)-ethyl]-amide]

- IC50 [2]: 1.3 µM
Compound: CC(C)C[C@@H](C(=O)N[C@@H](Cc1ccc(OCc2ccccc2)cc1)C(=O)NC(C)(C)C)N(C)Cc1ccncc1 (relative stereo) [Example 83, [S-(R*,R*)]-4-Methyl-2-(methyl-pyridin4-ylmethyl-amino)-pentanoic acid [2-(4-benzyloxy-phenyl)-1-tert-butylcarbamoyl-ethyl]-amide]

- IC50 [2]: 1.2 µM
Compound: CC(C)C[C@H](NC1CCOCC1)C(=O)N[C@@H](Cc1ccc(OCc2ccccc2)cc1)C(=O)N1CCSCC1 (relative stereo) [Example 72, [S-(R*,R*)]-4-Methyl-2-(tetrahydro-pyran-4-ylamino)-pentanoic acid [1-(4-benzyloxy-benzyl)-2-oxo-2-thiomorpholin-4-yl-ethyl]-amide]

- IC50 [2]: 0.32 µM
Compound: CC(C)CC(NC1CCOCC1)C(=O)NC(Cc1ccc(OCc2ccccc2)cc1)C(=O)OC(C)(C)C (stereo not drawn) [Example 85, [S-(R*,R*)]-3-(4-Benzyloxy-phenyl)-2-[4-methyl-2-(tetrahydro-pyran-4-ylamino)-pentanoylamino]-propionic acid tert-butyl ester]

- IC50 [3]: 1.6 µM
Compound: CC(C)C[C@@H](C(=O)N[C@@H](Cc1ccc(OCc2ccccc2)cc1)C(=O)NCCCn1ccnc1)N(C)C (relative stereo) [Example 134, [S-(R*,R*)]-2-Dimethylamino-4-methyl-pentanoic acid [2-(4-benzyloxy-phenyl)-1-(3-imidazol-1-yl-propylcarbamoyl)-ethyl]-amide]

- IC50 [3]: 3 µM
Compound: CCC(COC)NC(=O)[C@H](Cc1ccc(OCc2ccccc2)cc1)NC(=O)[C@H](CC(C)C)N(C)C (relative stereo) [Example 138, [S-(R*,R*)]-2-Dimethylamino-4-methyl-pentanoic acid [2-(4-benzyloxy-phenyl)-1-(1-methoxymethyl-propylcarbamoyl)-ethyl]-amide]

Second part, the compound before the results:

Compound: CCC[C@@H](C(=O)N[C@@H](Cc1ccc(OCc2ccccc2)cc1)C(=O)NC(C)(C)C)N(C)CCC(C)C (relative stereo) [Example 46, [S-(R*,R*)]-4-Methyl-2-[methyl-(3-methyl-butyl)-amino]-butyric acid [2-(4-benzyloxy-phenyl)-1-tert-butylcarbamoyl-ethyl]-amide]
- IMR 32 % of Blockade @ 0.3 μM [1]: 36%
- IMR 32 % of Blockade @ 3 μM [1]: 74%

Compound: CC(C)=CCN[C@@H](CC(C)C)C(=O)N[C@@H](Cc1ccc(OCc2ccccc2)cc1)C(=O)N1CCN(Cc2ccccc2)CC1 (relative stereo) [Example 53, [S-(R*,R*)]-4-Methyl-2-(3-methyl-but-2-enylamino)-pentanoic acid [1-(4-benzyloxy-benzyl)-2-(4-benzyl-piperazin-1-yl)-2-oxo-ethyl]-amide]
- IC50 [2]: 0.7 µM

Compound: CC(C)CCN(C)[C@@H](CC(C)C)C(=O)N[C@@H](Cc1ccc(OCc2ccccc2)cc1)C(=O)N1CCN(C)CC1 (relative stereo) [Example 12, [S-(R*,R*)]-4-Methyl-2-[methyl-(3-methyl-butyl)-amino]-pentanoic acid [1-(4-benzyloxy-benzyl)-2-(4-methyl-piperazin-1-yl)-2-oxo-ethyl]-amide]
- IMR 32 % of Blockade @ 1 μM [1]: 39%
- IMR 32 % of Blockade @ 10 μM [1]: 88%

Compound: CC(C)CCN(C)[C@@H](CC(C)C)C(=O)N[C@@H](Cc1ccc(OCc2ccccc2)cc1)C(=O)N1CCCCC1 (relative stereo) [Example 8, [S-(R*,R*)]-4-Methyl-2-[methyl-(3-methyl-butyl)-amino]-pentanoic acid [1-(4-benzyloxy-benzyl)-2-oxo-2-piperidin-1-yl-ethyl]-amide]
- IMR 32 % of Blockade @ 1 μM [1]: 70%
- IMR 32 % of Blockade @ 10 μM [1]: 87%

Compound: CCN(CC)C(CC(C)C)C(=O)N[C@@H](Cc1ccc(OCc2ccccc2)cc1)C(=O)NC(C)(C)C (stereo in doubt) [Example 37, [S-(R*,R*/S*)]-2-Diethylamino-4-methyl-pentanoic acid[2-(4-benzyloxy-phenyl)-1-tert-butylcarbamoyl-ethyl]-amide]
- IC50 (read-out: IMR 32 IC50): 1 µM

Compound: CC(C)C[C@@H](C(=O)N[C@@H](Cc1ccc(OCc2ccccc2)cc1)C(=O)NCCN1CCCCC1)N(C)C (relative stereo) [Example 3, [S-(R*,R*)]-2-Dimethylamino-4-methyl-pentanoic acid [2-(4-benzyloxy-phenyl)-1-(2-piperidin-1-yl-ethylcarbamoyl)-ethyl]-amide]
- IMR 32 % of Blockade @ 1 μM [1]: 21%
- IMR 32 % of Blockade @ 10 μM [1]: 70%

Compound: CC(C)C[C@H](N[C@@H]1C=CCCC1)C(=O)NC(Cc1ccc(OCc2ccccc2)cc1)C(=O)NC(C)(C)C (relative stereo) [Example 49, [S-(R*,R*)]-2-(Cyclohex-2-enylamino)-4-methyl-pentanoic acid [2-(4-benzyloxy-phenyl)-1-tert-butylcarbamoyl-ethyl]-amide]
- IC50 [2]: 0.66 µM

Compound: CC(C)CC(C(=O)NC(Cc1ccc(OCc2ccccc2)cc1)C(=O)NC(C)(C)C)N(C)Cc1ccccc1 (stereo not drawn) [Example 54, [S-(R*,R*)]-2-(Benzyl-methyl-amino)-4-methyl-pentanoic acid [2-(4-benzyloxy-phenyl)-1-tert-butylcarbamoyl-ethyl]-amide]
- IC50 [2]: 0.36 µM

Compound: CC(C)C[C@@H](C(=O)N[C@@H](Cc1ccc(OCc2ccccc2)cc1)C(=O)NC1CCN(Cc2ccccc2)CC1)N(C)CC1CCCCC1 (relative stereo) [Example 29, [S-(R*,R*)]-2-(Cyclohexylmethyl-methyl-amino)-4-methyl-pentanoic acid [2-(4-benzyloxy-phenyl)-1-(1-benzyl-piperidin-4-ylcarbamoyl)-ethyl]-amide]
- IC50 [2]: 0.6 µM

Compound: CCCCN(C)[C@@H](CC(C)C)C(=O)N[C@@H](Cc1ccc(OCc2ccccc2)cc1)C(=O)NC(C)(C)C (relative stereo) [Example 41, [S-(R*,R*)]-2-(Butyl-methyl-amino)-4-methyl-pentanoic acid [2-(4-benzyloxy-phenyl)-1-tert-butylcarbamoyl-ethyl]-amide]
- IC50 [2]: 0.28 µM

Compound: CCN(CCC(C)C)C(CC(C)C)C(=O)NC(Cc1ccc(OCc2ccccc2)cc1)C(=O)NC(C)(C)C (stereo not drawn) [Example 45, [S-(R*,R*)]-4Methyl-2-[ethyl-(3-methyl-butyl)-amino]-pentanoic acid [2-(4-benzyloxy-phenyl)-1-tert-butylcarbamoyl-ethyl]-amide]
- IMR 32 % of Blockade @ 0.3 μM [1]: 45%
- IMR 32 % of Blockade @ 3 μM [1]: 77%

Compound: CC(C)C[C@@H](C(=O)N[C@@H](Cc1ccc(OCc2ccccc2)cc1)C(=O)N1CCCCC1)N(C)Cc1ccc(C(C)(C)C)cc1 (relative stereo) [Example 14, [S-(R*,R*)]-2-[(4-tert-Butyl-benzyl)-methyl-amino]-4-methyl-pentanoic acid [2-(4-benzyloxy-phenyl)-1-(piperidine-1-carbonyl)-ethyl]-amide]
- IMR 32 % of Blockade @ 1 μM [1]: 80%
- IMR 32 % of Blockade @ 10 μM [1]: 85%
